US9884012B2, “Use of PEDF-derived polypeptides for promoting muscle or tendon regeneration or arteriogenesis” (MacKay Memorial Hospital, priority 2012, dated 2018)

What was measured:
soleus muscle [1] = experiment: bupivacaine myonecrosis model, centrally nucleated muscle fibers; assay type: in vivo, Sprague-Dawley rats; conditions: for centrally nucleated fibers in regenerating muscle: 14 days after the bupivacaine injection, in words; for Centrally nucleated fibers (%): day 7 after the bupivacaine injection, soleus muscle, sustained-release formulation (Bolus: bolus 29-mer)
Description: To ascertain the number of centrally nucleated muscle fibers, sections were stained with H&E and then photographed as described above. At least 100 stained fibers were randomly chosen from each photo. Muscle fibers were judged centrally nucleated if one or more nuclei were not located at the periphery of the fiber. The data were expressed as a % of the total number of muscle fibers counted. Results were evaluated from 6 sections per muscle section, and 10 mice at each group.
(§1) To investigate the effects of the present PEDF peptides on muscle regeneration, a rat myonecrosis model of a single injection of bupivacaine into the soleus muscle was employed. Adult 10-week-old male Sprague-Dawley rats (initial body weight=312±11 g) were anesthetized by an intraperitoneal injection of a xylazine (10 mg/kg). Then, the soleus muscle was injured by unilaterally injecting 0.5 ml bupivacaine (AstraZeneca) with a disposable syringe with a 26-gauge needle. Briefly, the needle was inserted into the distal portion of the soleus muscle and then receded longitudinally to the proximal portion accompanying evenly bupivacaine solution injection. The solution was then injected throughout the entire length of the muscle as the needle was slowly withdrawn.
(§2) After bupivacaine injection, rats were divided equally (n=10/group) into four experimental groups and treated as follows. In the blank control group, the mice were treated with 50 μl of blank alginate gel. In the treatments groups, the mice received 50 μl of the sustained-release formulation (29-mer or 20-mer). The mice in the bolus control group received the bolus formulation (29-mer). Treatments were applied by way of a single intramuscular injection to the soleus muscle immediately after the bupivacaine perfusion.
In the process of muscle regeneration, newly generated muscle fibers typically contain central located nuclei. […] Statistical analysis regarding the percentage of centrally nucleated fibers was performed at day 7 after the bupivacaine injection, and the results were summarized in Table 6.

soleus muscle [2] = experiment: bupivacaine myonecrosis model, muscle fiber size (minimal Feret's diameter); assay type: in vivo, Sprague-Dawley rats; conditions: 14 days after injury; for diameters of muscle fibers on average versus blank or bolus control group: in words
Description: The muscle fiber size was determined on H&E-stained muscle cross section and quantified using the minimum distance of parallel tangents at opposing particle borders (minimal “Feret's diameter”). Pictures were captured using a Nikon Eclipse 80i light microscope, and the minimal Feret's diameter was measured using the Image-Pro Plus 4.5.1 software (Media Cybernetics). Normalization of the number of fibers in each fiber Feret class of 5 μm was based on the total number of muscle fibers in each picture.
as §1, §2
In the later stage of muscle regeneration, newly generated muscle fibers start to gain size. Muscle specimens were collected at 14 days after injury, and respective fiber diameters were measured in accordance with the procedure set forth in the section of “Materials and Methods.” Results were summarized in FIG. 9.

[3] = test system: bone marrow-derived mesenchymal stem cells (BM-MSCs); experiment: BM-MSC differentiation into tenocytes, tenomodulin (TNMD) gene expression by RT-PCR; assay type: cell-based, Sprague-Dawley rats; conditions: 50 nM peptide, 1% FBS-DMEM, 24 or 48 hours, in words
Description: Primary rat BM-MSCs were isolated from femur of male Sprague-Dawley rats (300-450 g). Femora were aseptically removed and dissected free of adhering tissues, and then the marrow cavities were flushed by injection of DMEM medium. Collected bone marrow cells were incubated in a 100×15-mm Petri dish in DMEM medium supplemented with 10% FBS, 100 U/ml penicillin, and 100 μg/ml streptomycin for 2 weeks in 5% CO2 at 37° C. The medium was replaced every 2 to 3 days. For passage, near-confluent cells were detached by 0.25% trypsin and then 2×10^5 subcultured cells were seeded in a well of 6-well plate and further cultured in the 10% FBS-DMEM. Before treatment, cells were starved for 12 hours in DMEM supplemented with 1% FBS followed by treatment with 50 nM PEDF-derived peptide (29-mer or 20-mer) in fresh 1% FBS-DMEM for either 24 or 48 hours.
The total RNA was extracted from cells using TRIzol and treated with RNase-free DNase I (Qiagen, Santa Clarita, Calif.) to remove genomic DNA and then purified with an RNA purification kit (Dynabeads). […]
The PCR products were electrophoresed in a 2% agarose gel containing ethidium bromide and visualized by UV illumination. The intensities of the PCR products were quantified densitometrically using a FUJI LAS-3000 system and Multi Gauge Ver. […]

aortic ring explants = experiment: rat aortic ring sprouting assay (ex vivo neovessel sprouting); assay type: cell-based; conditions: aortic rings cultured with PEDF peptide, in words

In the case of “SLGAEQRTESIIHRALYYDL [20-mer, synthetic peptide corresponding to residues 93-112 of human PEDF]”, the “centrally nucleated fibers in regenerating muscle” value (soleus muscle [1]) is reported as “much less centrally nucleated fibers”, the “Centrally nucleated fibers (%)” value (soleus muscle [1]) is reported as 63.3 ± 7.4% and the “diameters of muscle fibers on average versus blank or bolus control group” value (soleus muscle [2]) is reported as “larger”. For the same sequence, the “muscle fibers with a minimal Feret's diameter between 15-25 μm” value (soleus muscle [2]; sustained-release formulation) was “about 56.6%”, the “tenocyte differentiation of BM-MSCs (TNMD gene expression)” value [3] was “effective inducer of tenocyte-like cell differentiation” and the “neovessel phenotype by dual immunofluorescence (α-SMA / isolectin B4)” value (aortic ring explants) was “displayed arteriole phenotype with a SMC coating”.

In the case of “SLGAEQRTESIIHRALYYDLISSPDIHGT [29-mer, synthetic peptide corresponding to residues 93-121 of human PEDF]”, the “centrally nucleated fibers in regenerating muscle” value (soleus muscle [1]) is reported as “much less centrally nucleated fibers”, the “Centrally nucleated fibers (%)” value (soleus muscle [1]) is reported as 75.2 ± 7.0% and the “diameters of muscle fibers on average versus blank or bolus control group” value (soleus muscle [2]) is reported as “larger”. The “tenocyte differentiation of BM-MSCs (TNMD gene expression)” value [3] was “effective inducer of tenocyte-like cell differentiation” and the “neovessel phenotype by dual immunofluorescence (α-SMA / isolectin B4)” value (aortic ring explants) was “displayed arteriole phenotype with a SMC coating”.
